Assay results: patent US9284333B2, “Fused pyrroledicarboxamides and their use as pharmaceuticals” (SANOFI, priority 2012, dated 2016)

Biological target: Human TASK-1 channels (Homo sapiens (Human), UniProt O14649)
Test: Determination of the activity on the TASK-1 channel in Xenopus oocytes (two-microelectrode voltage clamp)
Format: cell-based
Conditions: for inhibition at 5 µM: compound concentration 5 μM; for IC50: human TASK-1 expressed in Xenopus oocytes, room temperature, read-out: IC50 value for TASK-1 inhibition
Description: Determination of the activity on the TASK-1 channel in Xenopus oocytes
Human TASK-1 channels were expressed in Xenopus oocytes. For this purpose, oocytes were isolated from Xenopus laevis and defoliculated. Subsequently, TASK-1-encoding RNA synthesized in vitro was injected into the oocytes. After two days of TASK-1 protein expression, TASK-1 currents were measured by two-microelectrode voltage clamp. Data were acquired and analyzed using a TEC-10cx amplifier (NPI Electronic, Tamm, Germany) connected to an ITC-16 interface (Instrutech Corp., Long Island, USA) and Pulse software (HEKA Elektronik, Lambrecht, Germany). Oocytes were clamped to −90 mV and TASK-1 mediated currents were measured during 500 ms voltage pulses to 40 mV. Oocytes were continuously superfused with ND96 buffer containing 96 mM sodium chloride, 2 mM potassium chloride, 1.8 mM calcium chloride, 1 mM magnesium chloride, 5 mM 4-(2-hydroxyethyl)-piperazine-1-ethanesulfonic acid (HEPES; pH adjusted to 7.4 with sodium hydroxide). All experiments were performed at room temperature. Test compounds were consecutively added to the bath solution at rising concentrations. Compound effects were calculated as the percentage inhibition of TASK-1 control current before compound addition. IC50 values were obtained by fitting the data to the general dose-response equation.

Human TASK-1 channels, sequence (O14649 whole entry): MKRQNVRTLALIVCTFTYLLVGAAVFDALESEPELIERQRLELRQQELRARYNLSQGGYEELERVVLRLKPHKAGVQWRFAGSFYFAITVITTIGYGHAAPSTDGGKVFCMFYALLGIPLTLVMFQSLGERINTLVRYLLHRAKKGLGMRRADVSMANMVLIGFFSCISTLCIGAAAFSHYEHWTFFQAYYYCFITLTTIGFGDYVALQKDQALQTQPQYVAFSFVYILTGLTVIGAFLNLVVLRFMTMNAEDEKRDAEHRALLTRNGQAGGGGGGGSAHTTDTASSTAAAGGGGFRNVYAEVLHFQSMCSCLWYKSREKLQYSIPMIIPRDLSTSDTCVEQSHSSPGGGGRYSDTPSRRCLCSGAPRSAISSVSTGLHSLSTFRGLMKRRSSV

Compound | inhibition at 5 µM | IC50
CC[C@@H](NC(=O)c1cc(C(=O)N2CCC[C@@H]2C)n2c1COCC2)c1cncc(C(F)(F)F)c1 [16bk, 6-((S)-2-Methyl-pyrrolidine-1-carbonyl)-3,4-dihydro-1H-pyrrolo[2,1-c][1,4]oxazine-8-carboxylic acid [(R)-1-(5-trifluoromethyl-pyridin-3-yl)-propyl]-amide] | 53% | –
CC[C@@H](NC(=O)c1cc(C(=O)N2CCC[C@@H]2C)n2c1COCC2)c1ccc(C(F)(F)F)cn1 [16bl, 6-((S)-2-Methyl-pyrrolidine-1-carbonyl)-3,4-dihydro-1H-pyrrolo[2,1-c][1,4]oxazine-8-carboxylic acid [(R)-1-(5-trifluoromethyl-pyridin-2-yl)-propyl]-amide] | – | 820 nM
CC[C@@H](NC(=O)c1cc(C(=O)N2CCC[C@@H]2C)n2c1COCC2)c1ccc(C(F)(F)F)c(F)c1 [16bm, 6-((S)-2-Methyl-pyrrolidine-1-carbonyl)-3,4-dihydro-1H-pyrrolo[2,1-c][1,4]oxazine-8-carboxylic acid [(R)-1-(3-fluoro-4-trifluoromethyl-phenyl)-propyl]-amide] | – | 93 nM
CC[C@H](NC(=O)c1cc(C(=O)N2CCC[C@@H]2C)n2c1COCC2)c1ccc(C(F)(F)F)c(F)c1 [16bn, 6-((S)-2-Methyl-pyrrolidine-1-carbonyl)-3,4-dihydro-1H-pyrrolo[2,1-c][1,4]oxazine-8-carboxylic acid [(S)-1-(3-fluoro-4-trifluoromethyl-phenyl)-propyl]-amide] | 63% | –
CC[C@@H](NC(=O)c1cc(C(=O)N2CCC[C@@H]2C)n2c1COCC2)c1ccc(F)c(C(F)(F)F)c1 [16bo, 6-((S)-2-Methyl-pyrrolidine-1-carbonyl)-3,4-dihydro-1H-pyrrolo[2,1-c][1,4]oxazine-8-carboxylic acid [(R)-1-(4-fluoro-3-trifluoromethyl-phenyl)-propyl]-amide] | – | 160 nM
CC[C@H](NC(=O)c1cc(C(=O)N2CCC[C@@H]2C)n2c1COCC2)c1ccc(F)c(C(F)(F)F)c1 [16bp] | 90% | –
CC[C@@H](NC(=O)c1cc(C(=O)N2CCC[C@@H]2C)n2c1COCC2)c1cnc(C(F)(F)F)cc1Cl [16br, 6-((S)-2-Methyl-pyrrolidine-1-carbonyl)-3,4-dihydro-1H-pyrrolo[2,1-c][1,4]oxazine-8-carboxylic acid [(R)-1-(4-chloro-6-trifluoromethyl-pyridin-3-yl)-propyl]-amide] | – | 880 nM
CC[C@H](NC(=O)c1cc(C(=O)N2CCC[C@@H]2C)n2c1COCC2)c1cnc(C(F)(F)F)cc1Cl [16bs, 6-((S)-2-Methyl-pyrrolidine-1-carbonyl)-3,4-dihydro-1H-pyrrolo[2,1-c][1,4]oxazine-8-carboxylic acid [(S)-1-(4-chloro-6-trifluoromethyl-pyridin-3-yl)-propyl]-amide] | 80% | –
CC[C@@H](NC(=O)c1cc(C(=O)N2CCC[C@@H]2C)n2c1COCC2)c1cnc(C(F)(F)F)nc1 [16bt, 6-((S)-2-Methyl-pyrrolidine-1-carbonyl)-3,4-dihydro-1H-pyrrolo[2,1-c][1,4]oxazine-8-carboxylic acid [(R)-1-(2-trifluoromethyl-pyrimidin-5-yl)-propyl]-amide] | 47% | –
CC[C@@H](NC(=O)c1cc(C(=O)N2CCC[C@@H]2C)n2c1COCC2)c1ccnc(C(F)(F)F)c1F [16bu, 6-((S)-2-Methyl-pyrrolidine-1-carbonyl)-3,4-dihydro-1H-pyrrolo[2,1-c][1,4]oxazine-8-carboxylic acid [(R)-1-(3-fluoro-2-trifluoromethyl-pyridin-4-yl)-propyl]-amide] | – | 210 nM
CC[C@@H](NC(=O)c1cc(C(=O)N2CCC[C@@H]2C)n2c1COCC2)c1c(Cl)cncc1Cl [16bv, 6-((S)-2-Methyl-pyrrolidine-1-carbonyl)-3,4-dihydro-1H-pyrrolo[2,1-c][1,4]oxazine-8-carboxylic acid [(R)-1-(3,5-dichloro-pyridin-4-yl)-propyl]-amide] | – | 140 nM
CC[C@@H](NC(=O)c1cc(C(=O)N2CCC[C@@H]2C)n2c1COCC2)c1ccncc1Cl [16bw, 6-((S)-2-Methyl-pyrrolidine-1-carbonyl)-3,4-dihydro-1H-pyrrolo[2,1-c][1,4]oxazine-8-carboxylic acid [(R)-1-(3-chloro-pyridin-4-yl)-propyl]-amide] | – | 1200 nM
CC[C@H](NC(=O)c1cc(C(=O)N2CCC[C@@H]2C)n2c1COCC2)c1cnc(C(F)(F)F)cc1C(F)(F)F [16bx, 6-((S)-2-Methyl-pyrrolidine-1-carbonyl)-3,4-dihydro-1H-pyrrolo[2,1-c][1,4]oxazine-8-carboxylic acid [(S)-1-(4,6-bis-trifluoromethyl-pyridin-3-yl)-propyl]-amide] | – | 480 nM
CC[C@@H](NC(=O)c1cc(C(=O)N2CCC[C@@H]2C)n2c1COCC2)c1cnc(C(F)(F)F)cc1C(F)(F)F [16by, 6-((S)-2-Methyl-pyrrolidine-1-carbonyl)-3,4-dihydro-1H-pyrrolo[2,1-c][1,4]oxazine-8-carboxylic acid [(R)-1-(4,6-bis-trifluoromethyl-pyridin-3-yl)-propyl]-amide] | – | 800 nM
CC[C@@H](NC(=O)c1cc(C(=O)N2CCC[C@@H]2C)n2c1COCC2)c1ccc(C(F)(F)F)c(Cl)c1 [16c, 6-((S)-2-Methyl-pyrrolidine-1-carbonyl)-3,4-dihydro-1H-pyrrolo[2,1-c][1,4]oxazine-8-carboxylic acid [(R)-1-(3-chloro-4-trifluoromethyl-phenyl)-propyl]-amide] | – | 13 nM
CC[C@@H](NC(=O)c1cc(C(=O)N2CCC[C@@H]2C)n2c1COCC2)c1cc(F)c(C#N)c(F)c1 [16ca, 6-((S)-2-Methyl-pyrrolidine-1-carbonyl)-3,4-dihydro-1H-pyrrolo[2,1-c][1,4]oxazine-8-carboxylic acid [(R)-1-(4-cyano-3,5-difluoro-phenyl)-propyl]-amide] | – | 340 nM
CC[C@@H](NC(=O)c1cc(C(=O)N2CCC[C@@H]2C)n2c1COCC2)c1ccc(C(F)(F)F)nc1C [16cb, 6-((S)-2-Methyl-pyrrolidine-1-carbonyl)-3,4-dihydro-1H-pyrrolo[2,1-c][1,4]oxazine-8-carboxylic acid [(R)-1-(2-methyl-6-trifluoromethyl-pyridin-3-yl)-propyl]-amide] | – | 140 nM
CC[C@@H](NC(=O)c1cc(C(=O)N2CCC[C@@H]2C)n2c1COCC2)c1ccc(C(F)(F)F)nc1Cl [16cc, 6-((S)-2-Methyl-pyrrolidine-1-carbonyl)-3,4-dihydro-1H-pyrrolo[2,1-c][1,4]oxazine-8-carboxylic acid [(R)-1-(2-chloro-6-trifluoromethyl-pyridin-3-yl)-propyl]-amide] | – | 65 nM
CC[C@@H](NC(=O)c1cc(C(=O)N2CCC[C@@H]2C)n2c1COCC2)c1ccc(C(F)(F)F)s1 [16cf, 6-((S)-2-Methyl-pyrrolidine-1-carbonyl)-3,4-dihydro-1H-pyrrolo[2,1-c][1,4]oxazine-8-carboxylic acid [(R)-1-(5-trifluoromethyl-thiophen-2-yl)-propyl]-amide] | – | 21 nM
CC[C@@H](NC(=O)c1cc(C(=O)N2CCC[C@@H]2C)n2c1COCC2)c1ccc(F)c(Cl)c1 [16cg, 6-((S)-2-Methyl-pyrrolidine-1-carbonyl)-3,4-dihydro-1H-pyrrolo[2,1-c][1,4]oxazine-8-carboxylic acid [(R)-1-(3-chloro-4-fluoro-phenyl)-propyl]-amide] | – | 15 nM
CC[C@@H](NC(=O)c1cc(C(=O)N2CCC[C@@H]2C)n2c1COCC2)c1ccc(OC)c(Cl)c1 [16ch, 6-((S)-2-Methyl-pyrrolidine-1-carbonyl)-3,4-dihydro-1H-pyrrolo[2,1-c][1,4]oxazine-8-carboxylic acid [(R)-1-(3-chloro-4-methoxy-phenyl)-propyl]-amide] | – | 73 nM
CC[C@@H](NC(=O)c1cc(C(=O)N2CCC[C@@H]2C)n2c1COCC2)c1ccc(Cl)c(Cl)c1 [16ci, 6-((S)-Methyl-pyrrolidine-1-carbonyl)-3,4-dihydro-1H-pyrrolo[2,1-c][1,4]oxazine-8-carboxylic acid [(R)-1-(3,4-dichloro-phenyl)-propyl]-amide] | – | 30 nM
CC[C@@H](NC(=O)c1cc(C(=O)N2CCC[C@@H]2C)n2c1COCC2)c1cncc(Cl)c1 [16cj, 6-((S)-2-Methyl-pyrrolidine-1-carbonyl)-3,4-dihydro-1H-pyrrolo[2,1-c][1,4]oxazine-8-carboxylic acid [(R)-1-(5-chloro-pyridin-3-yl)-propyl]-amide] | 69% | –
CC[C@@H](NC(=O)c1cc(C(=O)N2CCC[C@@H]2C)n2c1COCC2)c1cnc(C(F)(F)F)c(F)c1 [16ck, 6-((S)-2-Methyl-pyrrolidine-1-carbonyl)-3,4-dihydro-1H-pyrrolo[2,1-c][1,4]oxazine-8-carboxylic acid [(R)-1-(5-fluoro-6-trifluoromethyl-pyridin-3-yl)-propyl]-amide] | – | 830 nM
CC[C@@H](NC(=O)c1cc(C(=O)N2CCC[C@@H]2C)n2c1COCC2)c1c(F)cc(C(F)(F)F)cc1F [16cl, 6-((S)-2-Methyl-pyrrolidine-1-carbonyl)-3,4-dihydro-1H-pyrrolo[2,1-c][1,4]oxazine-8-carboxylic acid [(R)-1-(2,6-difluoro-4-trifluoromethyl-phenyl)-propyl]-amide] | – | 50 nM
